The source of these data is PubChem BioAssay AID504739 (National Center for Advancing Translational Sciences (NCATS), 2011).

The test system of the data set is mouse liver microsomes, LC-MS/MS, half-life. The experiment in a line: Inhibitors of Bloom's syndrome helicase: Metabolic Stability Profiling. As to conditions: at 1 µM; stronger effect = higher value. An excerpt:
Survival of cells and the faithful propagation of the genome depend on elaborate mechanisms of detecting and repairing DNA damage. Treatment of advanced cancer relies on radiation therapy or chemotherapy, which kill cancer cells by causing extensive DNA damage. It is often found, that cancer cells develop resistance to therapy through enhanced activity of DNA repair functions; this has led to an increased interest in developing drugs that interfere with DNA repair, which could sensitize cancer cells to conventional therapy. Bloom syndrome helicase (BLM), is important in resolving abnormal DNA structures formed during replication or homologous recombination. Shutting down the expression of BLM leads to chromosomal instability and higher radiation sensitivity in cultured cells. After the completion of a qHTS campaign, secondary assays, and rounds of medicinal chemistry, a compound was identified to be further characterized through in vitro ADME assays. Mouse liver microsomes are created through broken up endoplasmic reticulum from mouse liver. These liver microsomes contain many drug metabolizing enzymes, such as Cytochome P-450s and flavin-containing monooxygenases. Because metabolism is major way of drug clearance, this is an important result. […]
1uM of compound in incubated in mouse liver microsome; the reference compound is ketanserin. […] Samples are analyzed with LC-MS/MS.

The structures appear in SMILES notation.

Take `O=C(Nc1ccc(F)c(C(F)(F)F)c1)Nc1nnc(-c2ccncc2)s1`: the half-life was 2 h.

As usually defined, the half-life is the time needed for the level to fall by half in the phase considered.
